From paper PMC6237161, “Synthesis, preliminarily biological evaluation and molecular docking study of new Olaparib analogues as multifunctional PARP-1 and cholinesterase inhibitors” (Journal of Enzyme Inhibition and Medicinal Chemistry, 2018)
Like-named read-outs stand apart in the source and are kept apart here.

Tests used:
[1] = target: T1, BChE from equine serum (eqBChE) (Equus caballus, UniProt P81908); assay: biochemical
T1 construct: butyrylcholinesterase (eqBChE, from equine serum); purchased Sigma-Aldrich; host or cells: equine serum
Procedure: (§1) The test compounds were dissolved in a minimum volume of DMSO (1%) and were diluted using sodium phosphate buffer (0.1 M, pH 7.4). A reaction mixture containing 20 μL sodium phosphate buffer, 100 μL DTMB (1 mM) and 40 μL AChE (0.2 U/Ml)/BChE (0.3 U/mL) was incubated with 20 μL of various concentrations of test compounds at 37 °C for 15 min followed by the addition of the substrate (20 μL) acetylthiocholine iodide (1 mM) or S-butyrylthiocholine iodide (1 mM) and incubation for another 3 min. […] The inhibition per cent was calculated by the following expression: (1-Ai/Ac) × 100, where Ai and Ac were the absorbance obtained for AChE/BChE in the presence and absence of inhibitors, respectively. […]

[2] = target: T2, AChE from electric eel (EeAChE) (Electrophorus electricus, UniProt O42275); assay: biochemical
T2 construct: purchased Sigma-Aldrich
Procedure: as §1

[3] = system: breast cancer cell line MDA-MB-436; assay: MTT assay for cell growth inhibition; assay type: cell-based; conditions: Homo sapiens, read-out: EC50 (μM) MDA-MB-436 cell inhibitory activity
Procedure: The anti-proliferative activities of synthesized compounds were assessed against breast cancer cell line MDA-MB-436 by the 3-(4, 5-Dimethylthiazol-2-yl)-2,5-diphenyltetrazolium bromide (MTT) assay. The MDA-MB-436 cell was purchased from Chinese Academy of Sciences. […]. After treated with compounds for 72 h, cells were incubated with 20 μL of 5 mg/mL MTT for 4 h. The culture medium was removed, and 150 μL DMSO was added to dissolve the formazan crystals. Wells containing only media were used for background correction. The optical density was measured spectrophotometrically at 490 nm. EC50 values were calculated using GraphPad Prism 6 software. Data were expressed as mean ± SEM.

PARP-1 enzyme = target: T3, PARP-1 enzyme (Homo sapiens, UniProt P09874); assay: biochemical; conditions: mean ± SD, n=3; for inhibition at 0.5 µM: PARP-1, measured at the conc. of 0.5 μM, read-out: Inhibition rate (%)
T3 construct: purchased Trevigen 4690–096-K
Procedure: Olaparib was used as positive control. […] Then, the standard curve was drawn and the inhibition rate of each test compound was calculated.

[4] = BChE from equine serum, mean ± SD, n=3, read-out: IC50 (μM) BChE
[5] = AChE from electric eel, mean ± SD, n=3, read-out: IC50 (μM) AChE
[6] = MDA-MB-436, MTT, incubated for 72 h, mean ± SD, n=3, concentration required to reduce cell proliferation by 50%

T3 sequence (P09874 whole entry): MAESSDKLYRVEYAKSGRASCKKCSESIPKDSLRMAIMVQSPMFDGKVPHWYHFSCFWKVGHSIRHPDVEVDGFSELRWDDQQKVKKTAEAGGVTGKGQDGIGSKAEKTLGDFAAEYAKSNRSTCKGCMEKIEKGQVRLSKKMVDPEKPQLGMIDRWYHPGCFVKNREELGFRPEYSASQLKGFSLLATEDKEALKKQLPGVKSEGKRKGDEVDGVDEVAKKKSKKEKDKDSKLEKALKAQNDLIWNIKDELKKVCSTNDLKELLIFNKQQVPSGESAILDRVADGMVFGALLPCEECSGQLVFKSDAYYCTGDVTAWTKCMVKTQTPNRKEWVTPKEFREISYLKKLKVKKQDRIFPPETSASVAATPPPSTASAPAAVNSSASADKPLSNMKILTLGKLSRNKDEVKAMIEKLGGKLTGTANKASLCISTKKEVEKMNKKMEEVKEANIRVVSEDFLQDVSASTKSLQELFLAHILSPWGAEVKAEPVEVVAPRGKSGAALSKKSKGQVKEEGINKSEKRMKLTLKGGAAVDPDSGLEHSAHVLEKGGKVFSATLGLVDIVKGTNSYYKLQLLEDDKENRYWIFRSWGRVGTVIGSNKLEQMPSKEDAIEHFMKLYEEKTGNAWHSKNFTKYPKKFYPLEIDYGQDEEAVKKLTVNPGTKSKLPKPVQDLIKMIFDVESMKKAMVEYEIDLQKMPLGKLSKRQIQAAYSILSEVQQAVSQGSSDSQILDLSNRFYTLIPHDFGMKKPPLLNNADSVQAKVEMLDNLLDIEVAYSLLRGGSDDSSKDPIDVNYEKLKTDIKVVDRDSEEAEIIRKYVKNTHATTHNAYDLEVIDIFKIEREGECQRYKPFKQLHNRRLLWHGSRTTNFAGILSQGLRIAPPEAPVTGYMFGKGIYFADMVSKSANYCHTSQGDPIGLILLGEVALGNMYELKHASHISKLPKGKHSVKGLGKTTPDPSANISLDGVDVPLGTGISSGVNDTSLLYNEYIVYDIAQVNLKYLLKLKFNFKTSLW
T2 sequence (O42275 24-633): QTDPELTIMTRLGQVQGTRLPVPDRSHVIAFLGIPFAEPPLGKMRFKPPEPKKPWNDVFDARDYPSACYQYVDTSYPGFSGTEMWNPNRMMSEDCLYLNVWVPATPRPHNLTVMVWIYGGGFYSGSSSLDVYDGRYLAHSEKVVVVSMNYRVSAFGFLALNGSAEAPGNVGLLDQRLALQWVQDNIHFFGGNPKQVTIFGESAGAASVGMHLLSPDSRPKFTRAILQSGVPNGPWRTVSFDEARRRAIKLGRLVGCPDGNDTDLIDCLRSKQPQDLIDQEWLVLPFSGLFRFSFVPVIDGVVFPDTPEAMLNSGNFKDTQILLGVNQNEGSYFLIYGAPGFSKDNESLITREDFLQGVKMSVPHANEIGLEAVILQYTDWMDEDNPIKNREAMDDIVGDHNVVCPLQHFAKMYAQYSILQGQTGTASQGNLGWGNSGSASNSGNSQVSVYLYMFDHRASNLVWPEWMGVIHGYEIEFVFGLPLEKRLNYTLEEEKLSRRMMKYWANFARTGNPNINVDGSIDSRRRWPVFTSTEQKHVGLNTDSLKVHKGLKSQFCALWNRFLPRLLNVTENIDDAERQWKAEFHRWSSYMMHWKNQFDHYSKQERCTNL
T1 sequence (P81908 whole entry): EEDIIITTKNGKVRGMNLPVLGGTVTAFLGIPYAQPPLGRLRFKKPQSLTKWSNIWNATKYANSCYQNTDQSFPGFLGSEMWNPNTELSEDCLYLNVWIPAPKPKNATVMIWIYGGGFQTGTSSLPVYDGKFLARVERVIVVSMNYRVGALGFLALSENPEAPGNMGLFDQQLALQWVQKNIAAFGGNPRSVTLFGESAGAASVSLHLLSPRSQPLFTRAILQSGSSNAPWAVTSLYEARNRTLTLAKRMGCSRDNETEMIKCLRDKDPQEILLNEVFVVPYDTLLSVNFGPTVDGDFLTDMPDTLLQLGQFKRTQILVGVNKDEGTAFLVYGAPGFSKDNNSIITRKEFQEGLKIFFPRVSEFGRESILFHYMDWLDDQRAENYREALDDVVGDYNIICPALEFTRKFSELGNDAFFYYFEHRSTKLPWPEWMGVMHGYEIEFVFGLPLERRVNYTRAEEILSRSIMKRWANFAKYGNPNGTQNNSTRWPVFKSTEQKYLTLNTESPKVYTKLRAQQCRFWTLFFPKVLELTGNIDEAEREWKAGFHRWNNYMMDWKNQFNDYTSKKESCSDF

Structure (SMILES)	IC50 [1, 4] [µM]	IC50 [2, 5] [µM]	EC50 ([3]; MDA-MB-436, 72 h) [µM]	inhibition at 0.5 µM (PARP-1 enzyme) [%]	IC50 (PARP-1 enzyme) [nM]	EC50 [3, 6] [µM]	IC50 [1] [µM]	IC50 [2] [µM]
O=C(c1cc(Cc2n[nH]c(=O)c3ccccc23)ccc1F)N1CCN(C(=O)C2CC2)CC1 [Olaparib]	34.4 ± 0.64	50.95 ± 0.46	8.63 ± 1.25					
O=C(/C=C/c1cccc([N+](=O)[O-])c1)N1CCN(C(=O)c2cc(Cc3n[nH]c(=O)c4ccccc34)ccc2F)CC1 [5l, (E)-4-{[3-[4–(3-(3-nitrophenyl)acryloyl)piperazine-1-carbonyl]-4-fluorophenyl]methyl} -2H -phthalazin-1-one]	9.16 ± 0.91	24.6 ± 1.1		95.7 ± 4.35	16.1 ± 1.25	11.6 ± 2.15		
Cc1ccc(/C=C/C(=O)N2CCN(C(=O)c3cc(Cc4n[nH]c(=O)c5ccccc45)ccc3F)CC2)cc1 [5d, (E)-4-{[3-[4-(3-(4-methylphenyl)acryloyl)piperazine-1-carbonyl]-4-fluorophenyl]methyl} -2H-phthalazin-1-one]	27.8 ± 0.87	72 ± 3.84		64.2 ± 4.59		35.1 ± 3.42		
O=C(/C=C/c1ccccc1)N1CCN(C(=O)c2cc(Cc3n[nH]c(=O)c4ccccc34)ccc2F)CC1 [5a, (E)-4-{[3-[4-(3-phenylacryloyl)piperazine-1-carbonyl]-4-fluorophenyl]methyl}-2H-phthalazin-1-one]	22.4 ± 1.19	52.9 ± 3.02		75.2 ± 4.84		38.2 ± 2.15		
CN(C)C(=O)Oc1cccc([N+](C)(C)C)c1 [Neostigmine, reference compound]							12 ± 0.45	0.04 ± 0.01
O=C(/C=C/c1ccc(F)cc1)N1CCN(C(=O)c2cc(Cc3n[nH]c(=O)c4ccccc34)ccc2F)CC1 [5g, (E)-4-{[3-[4–(3-(4-fluorophenyl)acryloyl)piperazine-1-carbonyl]-4-fluorophenyl]methyl} -2H -phthalazin-1-one]	105 ± 12.5	173 ± 30		85.6 ± 3.69	397 ± 7.01	13 ± 2.14		
COc1ccc(/C=C/C(=O)N2CCN(C(=O)c3cc(Cc4n[nH]c(=O)c5ccccc45)ccc3F)CC2)cc1OC [5b, (E)-4-{[3-[4–(3-(3,4-dimethoxyphenyl)acryloyl)piperazine-1-carbonyl]-4-fluorophenyl]methyl}-2H-phthalazin-1-one]	17.8 ± 0.72	45.2 ± 1.38		77.2 ± 3.89		41.2 ± 1.95		
O=C(/C=C/c1ccco1)N1CCN(C(=O)c2cc(Cc3n[nH]c(=O)c4ccccc34)ccc2F)CC1 [5o, (E)-4-{[3-[4-(3-(furan-2-yl)acryloyl)piperazine-1-carbonyl]-4-fluorophenyl]methyl} -2H -phthalazin-1-one]	77.6 ± 9.06	114 ± 14.9		65.2 ± 5.98		32.2 ± 3.58		
COc1ccc(OC)c(/C=C/C(=O)N2CCN(C(=O)c3cc(Cc4n[nH]c(=O)c5ccccc45)ccc3F)CC2)c1 [5f, (E)-4-{[3-[4–(3-(2,5-dimethoxyphenyl)acryloyl)piperazine-1-carbonyl]-4-fluorophenyl]methyl} -2H-phthalazin-1-one]	35.7 ± 2.98	76.9 ± 4.13		75.6 ± 3.61		30.2 ± 3.25		
COc1ccc(/C=C/C(=O)N2CCN(C(=O)c3cc(Cc4n[nH]c(=O)c5ccccc45)ccc3F)CC2)cc1 [5c, (E)-4-{[3-[4–(3-(4-methoxyphenyl)acryloyl)piperazine-1-carbonyl]-4-fluorophenyl]methyl} -2H-phthalazin-1-one]	179 ± 5.89	55.8 ± 0.6		89.2 ± 10.6	144 ± 5.26	14.2 ± 3.16		
COc1cc(/C=C/C(=O)N2CCN(C(=O)c3cc(Cc4n[nH]c(=O)c5ccccc45)ccc3F)CC2)cc(OC)c1OC [5n, (E)-4-{[3-[4–(3-(3,4,5-trimethoxyphenyl)acryloyl)piperazine-1-carbonyl]-4-fluorophenyl]methyl} -2H -phthalazin-1-one]	65.2 ± 1.08	99.1 ± 2.21		66 ± 4.82		31.2 ± 4.12		
O=C(/C=C/c1ccc([N+](=O)[O-])cc1)N1CCN(C(=O)c2cc(Cc3n[nH]c(=O)c4ccccc34)ccc2F)CC1 [5m, (E)-4-{[3-[4–(3-(4-nitrophenyl)acryloyl)piperazine-1-carbonyl]-4-fluorophenyl]methyl} -2H -phthalazin-1-one]	5.93 ± 0.19	12.2 ± 0.49		93.2 ± 5.28	37.9 ± 1.89	14 ± 1.28		
O=C(/C=C/c1ccc(Br)cc1)N1CCN(C(=O)c2cc(Cc3n[nH]c(=O)c4ccccc34)ccc2F)CC1 [5k, (E)-4-{[3-[4–(3-(4-bromophenyl)acryloyl)piperazine-1-carbonyl]-4-fluorophenyl]methyl} -2H -phthalazin-1-one]	45.8 ± 3.76	80.7 ± 4.87		43.2 ± 6.54		112 ± 5.24		
COc1ccccc1/C=C/C(=O)N1CCN(C(=O)c2cc(Cc3n[nH]c(=O)c4ccccc34)ccc2F)CC1 [5e, (E)-4-{[3-[4-(3-(2-methoxyphenyl)acryloyl)piperazine-1-carbonyl]-4-fluorophenyl]methyl}-2H-phthalazin-1-one]	26.4 ± 1.93	56.9 ± 4.3		62.6 ± 3.65		44.2 ± 1.95		
O=C(/C=C/c1ccc(C(F)(F)F)cc1)N1CCN(C(=O)c2cc(Cc3n[nH]c(=O)c4ccccc34)ccc2F)CC1 [5h, (E)-4-{[3-[4–(3-(4-trifluoromethylphenyl)acryloyl)piperazine-1-carbonyl]-4-fluorophenyl]methyl} -2H -phthalazin-1-one]	56.8 ± 4.36	136 ± 12.5		89.5 ± 12.6	295 ± 8.25	14.8 ± 1.42		
O=C(/C=C/c1cccc(F)c1)N1CCN(C(=O)c2cc(Cc3n[nH]c(=O)c4ccccc34)ccc2F)CC1 [5i, (E)-4-{[3-[4–(3-(3-fluorophenyl)acryloyl)piperazine-1-carbonyl]-4-fluorophenyl]methyl} -2H -phthalazin-1-one]	33.4 ± 4.14	110 ± 9.18		88.2 ± 5.24	267 ± 9.32	14.2 ± 5.21		
O=C(/C=C/c1ccc(Cl)cc1)N1CCN(C(=O)c2cc(Cc3n[nH]c(=O)c4ccccc34)ccc2F)CC1 [5j, (E)-4-{[3-[4–(3-(4-chlorophenyl)acryloyl)piperazine-1-carbonyl]-4-fluorophenyl]methyl} -2H -phthalazin-1-one]	37.1 ± 2.37	86.5 ± 5.12		75.5 ± 4.54		45.2 ± 1.68		
